“Also recorded” adds a separate entry of the source.

Data set [1] has as its system pDCs. In kind it is cell-based, human.
In data set [2] the test system is pDCs. In kind it is cell-based, human. This is another data set of the same source.
The subject of data set [3] is pDCs. Type of data set: cell-based, human. This is another data set of the same source.
The test system of data set [4] is pDCs.
Data set [5] has as its system pDCs. In kind it is cell-based, human. The source holds these as a separate data set.
In data set [6] the test system is macrophages. In kind it is cell-based, human.
Data set [7] relates to macrophages. The experiment in a line: FAIRE assay on promoter regions of IL6, TNF and IL12p40 in macrophages. Type of data set: cell-based, human. As to conditions: cells primed with IFN-α 24 hours, then LPS 3 hours, FIG. 4G.
In data set [8] the test system is macrophages. Kind of data set: Immunoblot of NF-κB and MAPKs signaling in macrophages. Type of data set: cell-based, human. The conditions noted are these: whole cell lysates, FIG. 20B. (In western blotting, separated proteins are transferred to a membrane and probed.)

For the molecule `O=C(O)CCCCC(CCSCc1ccccc1)SCc1ccccc1` (centres unmarked) [CPI-613, 6,8-bis-benzylthio-octanoic acid], in data set [1], the XBP1 splicing result is on record as “no effect”; the “expression of ISGs such as GBP1, IRF7, ISG54, MxB, CXCL10” value was “inhibited”; the “expression of PHGDH” value is reported as “no effect”. For the same molecule, in data set [1] (5 h), the “expression of IFN-α (IFNA)” value is reported as “inhibited”. Besides, the “secretion of IFN-α” value in data set [2] is “inhibited”. Moreover, the “intracellular ATP levels in TLR9-activated pDCs” value in data set [3] is “reduced”. Also, in data set [4], the cell viability entry was “no effect”.

Turning to `Cc1ccc(OCCN(C)C(=O)Cn2cc(NC(=O)CCOc3ccccc3)cn2)cc1` [IXA4], in data set [1], the PHGDH gene expression result is given as “induced”.

Take `N[C@@H](CO)C(=O)O` [L-serine]: in data set [2], the “IFN-α secretion by TLR9-activated pDCs” value is “unaltered”.

As to `Cc1cc(C)nc(NC(=S)N2CCN(Cc3ccc(C(F)(F)F)cc3)CC2)c1` [NCT-503], in data set [1], the “IFNA expression by TLR9-activated pDCs facing ER stress” value is “restored”. Further, the “intracellular pyruvate levels in ER stressed-pDCs” value in data set [5] was “restored”. In addition, the “intracellular ATP levels under ER stress” value in data set [3] was “restored”.

With `CC(=O)C(=O)[O-].[Na+]` [pyruvate, sodium pyruvate], in data set [1], the “IFNA expression by pDCs under ER stress condition” value is “restore”. In data set [3], the “intracellular ATP levels under ER stress” value is given as “restored”.

Consider `C/C=C(/C)C(=O)O[C@H]1C(C)=C2[C@H]([C@@H]1OC(=O)CCCCCCC)[C@@](C)(OC(C)=O)C[C@H](OC(=O)CCC)[C@@]1(O)[C@H]2OC(=O)[C@@]1(C)O` [thapsigargin], for which, in data set [1], the “gene encoding phosphoglycerate dehydrogenase (PHGDH) expression” value is recorded as “markedly induced” and the “induction of serine amino acid biosynthesis genes” value was “induction”.

As to `O.O=C([O-])CCC(=O)C(=O)[O-].[Na+].[Na+]` [α-KG, α-ketoglutaric acid disodium salt hydrate], the “intracellular ATP levels under ER stress” value in data set [3] is reported as “restored”.

With IFN-α, in data set [6], the “LPS-induced response in macrophages: TNF, IL6, IL1B, IL12B and IFNB” value is given as “superinduction; also recorded: increases”; the “TLR4 expression or of the 2 subunits of the IFNAR in the macrophages” value was “little change”; the “chemokine receptors expression on macrophages” value was “significant impact”; the “inflammatory genes (IL-1β, IL-12p40, IFN-β and CXCL10) expression” value is listed as “dose-dependent manner”. Moreover, the “chromatin accessibility of IL6 and TNF promoters” value in data set [7] was “significantly increased; also recorded: increase”. Also, in data set [8], the “TLR4-induced IKBα degradation or activation of MAPKs ERK and p38” value is listed as “minimal effects; also recorded: does not increase”.

Values taken from US20250009779A1 (priority 2021, published 2025).
